The values below come from ChEMBL document CHEMBL5728507, “Tricyclic heterocyclic derivatives and uses thereof” (2021).

SMILES strings stand for the structures.

Sequence of Macrophage colony-stimulating factor 1 receptor (P07333 whole entry): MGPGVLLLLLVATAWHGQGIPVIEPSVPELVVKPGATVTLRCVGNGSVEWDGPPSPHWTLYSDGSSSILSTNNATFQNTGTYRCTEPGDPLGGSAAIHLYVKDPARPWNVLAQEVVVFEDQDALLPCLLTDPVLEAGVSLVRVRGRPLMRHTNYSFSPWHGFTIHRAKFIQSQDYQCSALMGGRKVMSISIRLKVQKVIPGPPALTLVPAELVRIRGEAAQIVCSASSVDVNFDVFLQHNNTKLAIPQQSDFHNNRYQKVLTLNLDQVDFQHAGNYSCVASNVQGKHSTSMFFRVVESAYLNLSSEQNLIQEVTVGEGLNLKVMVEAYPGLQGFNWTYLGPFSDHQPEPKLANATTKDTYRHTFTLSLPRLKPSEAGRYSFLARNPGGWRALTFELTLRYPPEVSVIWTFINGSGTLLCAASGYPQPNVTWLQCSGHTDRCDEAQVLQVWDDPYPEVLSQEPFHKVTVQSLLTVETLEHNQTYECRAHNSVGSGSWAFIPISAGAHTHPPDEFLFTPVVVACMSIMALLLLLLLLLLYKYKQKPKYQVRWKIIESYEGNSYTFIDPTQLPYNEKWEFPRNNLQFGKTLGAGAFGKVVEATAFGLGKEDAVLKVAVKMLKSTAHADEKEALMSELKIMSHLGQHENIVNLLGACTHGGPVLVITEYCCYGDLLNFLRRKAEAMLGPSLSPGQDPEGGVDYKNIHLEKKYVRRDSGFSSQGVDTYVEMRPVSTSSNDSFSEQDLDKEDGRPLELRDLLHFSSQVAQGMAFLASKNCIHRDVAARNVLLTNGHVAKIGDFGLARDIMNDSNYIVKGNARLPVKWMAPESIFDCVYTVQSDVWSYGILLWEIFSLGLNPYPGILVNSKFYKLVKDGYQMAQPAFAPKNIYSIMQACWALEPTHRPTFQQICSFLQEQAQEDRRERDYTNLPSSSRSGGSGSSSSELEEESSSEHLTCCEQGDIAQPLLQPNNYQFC

The assay has as its target Macrophage colony-stimulating factor 1 receptor (Homo sapiens, UniProt P07333). As to the kind of experiment: Biochemical Assay: IC50 values were determined using the Z′-LYTE® activity assay, with ATP concentration used at Km app for the specific assay (500 μM ATP for CSF-1R (FMS) and 75 μM ATP for KDR (VEGFR2)).The Z′-LYTE® biochemical assay employs a fluorescence-based, coupled-enzyme format and is based on the differential sensitivity of phosphorylated and non-phosphorylated peptides to proteolytic ….
The IC50 is the concentration that gives 50% inhibition. A high value points to weaker potency in that assay. Compound `Cc1cc(OCCCN2C[C@@H](C)N[C@@H](C)C2)c2oc3cc(Oc4ccc(CCC(=O)NC5CCCC5)nc4)ccc3c(=O)c2c1` displayed an IC50 below 100 nM.
Under `Cc1cc(OCCCN(C)C)c2oc3cc(Oc4cccc(NC(=O)Nc5ccccc5)c4)ccc3c(=O)c2c1` stands below 100 nM; under `Cc1cc(OCCN(C)C)c2oc3cc(Oc4cccc(NC(=O)Nc5ccccc5)c4)ccc3c(=O)c2c1`, below 100 nM; under `Cc1cc(OCCCN(C)C)c2oc3cc(Oc4cccc(C(=O)Nc5ccccc5)c4)ccc3c(=O)c2c1`, below 100 nM.
Regarding `Cc1cc(OCCN(C)C)c2oc3cc(Oc4ccc(CCC(=O)N5CCCC5)nc4)ccc3c(=O)c2c1`, the concentration for half-maximal inhibition (IC50) was below 100 nM.
Under `Cc1cc(OCCN(C)C)c2oc3cc(Oc4cccc(C(=O)Nc5ccccc5)c4)ccc3c(=O)c2c1` stands below 100 nM.
